According to ChEMBL document CHEMBL1147339, “Combination effects of antifungal nagilactones against Candida albicans and two other fungi with phenylpropanoids” (1993):
In brackets after ≈: the same amount, converted by molar mass. Activity calls are given as the source filed them. The rule behind the calls is not given here.

Assays:
[1] = system: Klebsiella aerogenes; assay: Antimicrobial activity against Enterobacter aerogenes ATCC 13048 up to 800 ug/mL after 2 days by broth dilution method; format: functional, organism-based
[2] = system: Penicillium chrysogenum; assay: Antimicrobial activity against Penicillium chrysogenum ATCC 10106 up to 800 ug/mL after 5 days by broth dilution method; format: functional, organism-based
[3] = system: Pseudomonas aeruginosa; assay: Antimicrobial activity against Pseudomonas aeruginosa ATCC 10145 up to 800 ug/mL after 2 days by broth dilution method; format: functional, organism-based
[4] = system: Saccharomyces cerevisiae; assay: Antifungal activity against Saccharomyces cerevisiae ATCC 7754 after 2 days by broth dilution method; format: functional; conditions: ATCC 7754, 48 h
[5] = system: Streptococcus mutans; assay: Antimicrobial activity against Streptococcus mutans ATCC 25175 up to 800 ug/mL after 2 days by broth dilution method; format: functional, organism-based
[6] = system: Corynebacterium ammoniagenes; assay: Antimicrobial activity against Brevibacterium ammoniagenes ATCC 6872 up to 800 ug/mL after 2 days by broth dilution method; format: functional, organism-based
[7] = system: Bacillus subtilis; assay: Antimicrobial activity against Bacillus subtilis ATCC 9372 up to 800 ug/mL after 2 days by broth dilution method; format: functional; conditions: ATCC 9372, 48 h
[8] = system: Cutibacterium acnes; assay: Antimicrobial activity against Propionibacterium acnes ATCC 11827 up to 800 ug/mL after 2 days by broth dilution method; format: functional, organism-based
[9] = system: Staphylococcus aureus; assay: Antimicrobial activity against Staphylococcus aureus ATCC 12598 up to 800 ug/mL after 2 days by broth dilution method; format: functional, organism-based
[10] = system: Malassezia furfur; assay: Antifungal activity against Pityrosporum ovale ATCC 14521 after 3 days by broth dilution method; format: functional; conditions: ATCC 14521, 72 h
[11] = system: Escherichia coli; assay: Antimicrobial activity against Escherichia coli ATCC 9637 up to 800 ug/mL after 2 days by broth dilution method; format: functional, organism-based
[12] = system: Candida albicans; assay: Antifungal activity against Candida albicans ATCC 18804 after 2 days by broth dilution method; format: functional; conditions: ATCC 18804, 48 h
[13] = system: Saccharomyces cerevisiae; assay: Antifungal activity against Saccharomyces cerevisiae ATCC 7754 at 1600 ug/mL after 2 days by broth dilution method; format: functional, organism-based
[14] = system: Candida albicans; assay: Antifungal activity against Candida albicans ATCC 18804 at 800 ug/mL after 2 days by broth dilution method; format: functional, organism-based
[15] = system: Malassezia furfur; assay: Antifungal activity against Pityrosporum ovale ATCC 14521 at 800 ug/mL after 3 days by broth dilution method; format: functional, organism-based
[16] = system: Saccharomyces cerevisiae; assay: Antifungal activity against Saccharomyces cerevisiae ATCC 7754 at 800 ug/mL after 2 days by broth dilution method; format: functional; conditions: ATCC 7754, 48 h

In the case of `CC(C)[C@H]1OC(=O)C=C2C13O[C@@H]3[C@H]1OC(=O)[C@@]3(C)[C@@H](O)CC[C@@]2(C)[C@@H]13` (some centres not stated) [NAGILACTONE E], the Activity [1] is reported as “inactive”, the Activity [2] is reported as “inactive” and the Activity [3] is reported as “inactive”. The MIC [4] was 100 µg/mL (≈ 287 µM), the Activity [5] was “inactive” and the Activity [6] was “inactive”. For the same compound, the MIC [7] was 50 µg/mL (≈ 144 µM), the Activity [8] was “inactive” and the Activity [9] was “inactive”. For the same compound, the MIC [10] was 50 µg/mL (≈ 144 µM), the Activity [11] was “inactive” and the MIC [12] was 800 µg/mL (≈ 2300 µM).

For `COc1ccc(/C=C/C(=O)O)cc1` [4-METHOXYCINNAMIC ACID], the MIC [4] was 100 µg/mL (≈ 561 µM), the MIC [10] was greater than 800 µg/mL and the MIC [12] was 200 µg/mL (≈ 1120 µM).

For `C/C=C/c1ccc(OC)c(OC)c1` [METHYLISOEUGENOL], the MIC [4] was 400 µg/mL (≈ 2240 µM), the MIC [10] was 200 µg/mL (≈ 1120 µM) and the MIC [12] was 400 µg/mL (≈ 2240 µM).

For `C/C=C\c1ccc(O)c(OC)c1` [ISOEUGENOL], the MIC [4] was 400 µg/mL (≈ 2440 µM), the MIC [10] was 200 µg/mL (≈ 1220 µM) and the MIC [12] was 400 µg/mL (≈ 2440 µM).

`C/C=C/c1ccc(OC)cc1` [ANETHOLE] was tested, and the MIC [4] was 200 µg/mL (≈ 1350 µM), the MIC [10] was 200 µg/mL (≈ 1350 µM) and the MIC [12] was 200 µg/mL (≈ 1350 µM).

Compound `C=CCc1ccccc1` [ALLYLBENZENE] has an MIC [4] of 400 µg/mL (≈ 3380 µM), an MIC [10] greater than 800 µg/mL and an MIC [12] of 400 µg/mL (≈ 3380 µM).

For `COc1ccc(O)c(C(C)(C)C)c1.COc1ccc(O)cc1C(C)(C)C` [BUTYLATED HYDROXYANISOLE], the MIC [4] was 200 µg/mL and the MIC [10] was 200 µg/mL.

With `C=CCc1ccc(OC)c(OC)c1` [METHYLEUGENOL] the MIC [4] was 800 µg/mL (≈ 4490 µM), the MIC [10] was 200 µg/mL (≈ 1120 µM) and the MIC [12] was 800 µg/mL (≈ 4490 µM).

With `CC(C)c1oc(=O)cc2c1[C@@H](O)[C@H]1OC(=O)[C@@]3(C)[C@@H](O)[C@H]4O[C@H]4[C@@]2(C)[C@@H]13` [NAGILACTONE C] the Activity [1] was “inactive”, the Activity [13] was “inactive” and the Activity [2] was “inactive”. The Activity [3] was “inactive”, the Activity [14] was “inactive” and the MIC [4] was greater than 1600 µg/mL. For the same compound, the Activity [5] was “inactive”, the Activity [6] was “inactive” and the Activity [15] was “inactive”. The Activity [8] was “inactive”, the Activity [9] was “inactive” and the MIC [10] was greater than 1600 µg/mL. The Activity [11] was “inactive”.

For `CC(C)[C@H]1OC(=O)C=C2C1=C[C@H]1OC(=O)[C@@]3(C)C[C@H](O)C[C@@]2(C)[C@@H]13`, the Activity [1] was “inactive”, the Activity [2] was “inactive” and the Activity [3] was “inactive”. The MIC [4] was 800 µg/mL (≈ 2410 µM), the Activity [5] was “inactive” and the Activity [6] was “inactive”. For the same compound, the Activity [8] was “inactive”, the Activity [9] was “inactive” and the MIC [16] was 800 µg/mL (≈ 2410 µM). The Activity [11] was “inactive”.

`C/C=C/c1cc(OC)c(OC)cc1OC` [TRANS-ASARONE] was tested, and the MIC [4] was 800 µg/mL (≈ 3840 µM), the MIC [10] was 200 µg/mL (≈ 960 µM) and the MIC [12] was 800 µg/mL (≈ 3840 µM).

Work on `C/C=C/c1ccc2c(c1)OCO2` [ISOSAFROLE] yielded an MIC [4] of 200 µg/mL (≈ 1230 µM), an MIC [10] of 100 µg/mL (≈ 617 µM) and an MIC [12] of 100 µg/mL (≈ 617 µM).

`C=CCc1ccc2c(c1)OCO2` [SAFROLE] was tested, and the MIC [4] was 200 µg/mL (≈ 1230 µM), the MIC [10] was 200 µg/mL (≈ 1230 µM) and the MIC [12] was 200 µg/mL (≈ 1230 µM).

Work on `C=CCc1ccc(O)c(OC)c1` [EUGENOL] yielded an MIC [4] of 800 µg/mL (≈ 4870 µM), an MIC [10] of 200 µg/mL (≈ 1220 µM) and an MIC [12] of 800 µg/mL (≈ 4870 µM).

With `O=C(O)c1ccc(O)cc1` [PARABEN] the MIC [4] was 200 µg/mL (≈ 1450 µM) and the MIC [10] was 100 µg/mL (≈ 724 µM).

Compound `C/C=C/c1ccccc1` has an MIC [4] of 400 µg/mL (≈ 3380 µM), an MIC [10] greater than 800 µg/mL and an MIC [12] of 400 µg/mL (≈ 3380 µM).
